The results in this text go back to patent US10508088B2, “Methods using HDAC11 inhibitors” (FORMA Therapeutics, Inc., priority 2016, dated 2019).

Sequence of Full length human recombinant HDAC11 (Q96DB2 whole entry): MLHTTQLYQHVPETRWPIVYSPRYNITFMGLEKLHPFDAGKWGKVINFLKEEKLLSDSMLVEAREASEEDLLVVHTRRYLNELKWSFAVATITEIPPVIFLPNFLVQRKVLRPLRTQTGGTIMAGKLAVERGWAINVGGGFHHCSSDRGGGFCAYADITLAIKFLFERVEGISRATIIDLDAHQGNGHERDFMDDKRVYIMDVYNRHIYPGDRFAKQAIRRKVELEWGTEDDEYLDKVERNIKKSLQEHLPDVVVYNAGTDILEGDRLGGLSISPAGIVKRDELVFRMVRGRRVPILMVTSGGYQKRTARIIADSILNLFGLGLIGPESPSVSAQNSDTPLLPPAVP

The experiment addresses Full length human recombinant HDAC11 (Homo sapiens (Human), UniProt Q96DB2). The experiment is described as follows: Enzymatic HDAC11 assay, electrophoretic mobility shift. It is filed as biochemical. The settings on record: substrate FAM-RHKK(tri-fluor-Ac)-NH2, read-out: HDAC11 IC50 Range. How it is done:
The enzymatic HDAC11 assay was performed using electrophoretic mobility shift assay. Full length human recombinant HDAC11 protein was expressed in baculoviral system and purified by affinity chromatography. The enzymatic reactions were assembled in 384 well plates in a total volume of 25 μL in a reaction buffer composing: 100 mM HEPES, pH 7.5, 25 mM KCl, 0.1% bovine serum albumin, 0.01% Triton X-100, 1% DMSO (from compounds) 2 μM of the fluorescently labeled peptide substrate and enzyme. The enzyme was added at a final concentration of 10 nM. The peptide substrate FAM-RHKK(tri-fluor-Ac)-NH2 was used. The compounds were tested at 12 concentrations spaced by 3× dilution intervals. Negative control samples (0%-inhibition in the absence of inhibitor) and positive control samples (100%-inhibition) were assembled in replicates of four in each assay plate. The reactions were incubated at 25° C. and quenched by the addition of 45 μL of termination buffer (100 mM HEPES, pH 7.5, 0.01% Triton X-100, 0.05% SDS).
The terminated assay plates were analyzed on LabChip® 3000 microfluidic electrophoresis instrument (Perkin Elmer/Caliper Life Sciences). The fluorescence intensity of the electrophoretically separated de-acetylated product and substrate peptide was measured. Activity in each sample was determined as the product to sum ratio (PSR):P/(S+P), where P is the peak height of the product peptide and S is the peak height of the substrate peptide. Percent inhibition (Pinh) is determined using the following equation: Pinh=(PSR0%−PSRinh)/(PSR0%−PSR100%)*100,
where PSRinh is the product sum ratio in the presence of inhibitor, PSR0% is the average product sum ration in the absence of inhibitor and PSR100% is the average product sum ratio in 100%-inhibition control samples. The IC50 values of inhibitors were determined by fitting the percent inhibition curves with 4 parameter dose-response model using XLfit 4 software.
(In EMSA bound probe runs differently from free probe, usually more slowly.)
Broadly, the IC50 is the point on the concentration scale where inhibition reaches its midpoint. Consider `COc1ccc(CN2CCC3(Cc4cccc(C(=O)NO)c4C3)C2=O)cc1` (stereo not drawn) [II-19, N-hydroxy-1′-(4-methoxybenzyl)-2′-oxo-1,3-dihydrospiro[indene-2,3′-pyrrolidine]-4-carboxamide], for which the IC50 is above 1000 nM. With `COc1cccc(CN2CCC3(Cc4cccc(C(=O)NO)c4C3)C2=O)c1` (stereo not drawn) [II-20, N-hydroxy-1′-(3-methoxybenzyl)-2′-oxo-1,3-dihydrospiro[indene-2,3′-pyrrolidine]-4-carboxamide], the IC50 was above 1000 nM. In the case of `O=C(NO)c1cccc2c1CC1(CCN(Cc3c(Cl)cccc3Cl)C1=O)C2` (stereo not drawn) [II-21, 1′-(2,6-dichlorobenzyl)-N-hydroxy-2′-oxo-1,3-dihydrospiro[indene-2,3′-pyrrolidine]-4-carboxamide], the IC50 was in the range of 500 to 1000 nM.

In the case of `O=C(NO)c1cccc2c1CC1(CCN(Cc3cccc(Cl)c3Cl)C1=O)C2` (stereo not drawn) [II-22, 1′-(2,3-dichlorobenzyl)-N-hydroxy-2′-oxo-1,3-dihydrospiro[indene-2,3′-pyrrolidine]-4-carboxamide], the IC50 is below 500 nM.

Take `Cc1ccccc1CN1CCC2(Cc3cccc(C(=O)NO)c3C2)C1=O` (stereo not drawn) [II-23, N-hydroxy-1′-(2-methylbenzyl)-2′-oxo-1,3-dihydrospiro[indene-2,3′-pyrrolidine]-4-carboxamide]: the IC50 was above 1000 nM. As to `O=C(NO)c1cccc2c1CC1(CCN(Cc3cccnc3)C1=O)C2` (stereo not drawn) [II-24, N-hydroxy-2′-oxo-1 ‘-(pyridin-3-ylmethyl)-1,3-dihydrospiro[indene-2,3’-pyrrolidine]-4-carboxamide], the IC50 was above 1000 nM.

For `O=C(NO)c1cccc2c1CC1(CCN(Cc3ccccc3Cl)C1=O)C2` (stereo not drawn) [II-25, 1′-(2-chlorobenzyl)-N-hydroxy-2′-oxo-1,3-dihydrospiro[indene-2,3′-pyrrolidine]-4-carboxamide], the IC50 was above 1000 nM. The value for `O=C(NO)c1cccc2c1CC1(CCN(Cc3cccc(F)c3)C1=O)C2` (stereo not drawn) [II-26, 1′-(3-fluorobenzyl)-N-hydroxy-2′-oxo-1,3-dihydrospiro[indene-2,3′-pyrrolidine]-4-carboxamide] was above 1000 nM. In the case of `O=C(NO)c1cccc2c1CC1(CCN(Cc3ccc(OC(F)(F)F)cc3)C1=O)C2` (stereo not drawn) [II-27, N-hydroxy-2′-oxo-1′-(4-(trifluoromethoxy)benzyl)-1,3-dihydrospiro[indene-2,3′-pyrrolidine]-4-carboxamide], the IC50 was below 500 nM. In the case of `O=C(NO)c1cccc2c1CC1(CCN(Cc3cc(F)cc(F)c3)C1=O)C2` (stereo not drawn) [II-28, 1′-(3,5-difluorobenzyl)-N-hydroxy-2′-oxo-1,3-dihydrospiro[indene-2,3′-pyrrolidine]-4-carboxamide], the IC50 was above 1000 nM. Take `O=C(NO)c1cccc2c1CC1(CCN(Cc3ccccc3C(F)(F)F)C1=O)C2` (stereo not drawn) [II-29, N-hydroxy-2′-oxo-1′-(2-(trifluoromethyl)benzyl)-1,3-dihydrospiro[indene-2,3′-pyrrolidine]-4-carboxamide]: the IC50 is 500 to 1000 nM.

For the molecule `O=C(NO)c1cccc2c1CC1(CCN(Cc3cccc(Cl)c3)C1=O)C2` (stereo not drawn) [II-30, 1′-(3-chlorobenzyl)-N-hydroxy-2′-oxo-1,3-dihydrospiro[indene-2,3′-pyrrolidine]-4-carboxamide], the IC50 was below 500 nM. `O=C(NO)c1cccc2c1CC1(CCN(Cc3cccc(C(F)(F)F)c3)C1=O)C2` (stereo not drawn) [II-31, N-hydroxy-2′-oxo-1′-(3-(trifluoromethyl)benzyl)-1,3-dihydrospiro[indene-2,3′-pyrrolidine]-4-carboxamide]: the IC50 is below 500 nM. Take `O=C(NO)c1cccc2c1CC1(CCN(Cc3ccccc3OC(F)(F)F)C1=O)C2` (stereo not drawn) [II-32, N-hydroxy-2′-oxo-1′-(2-(trifluoromethoxy)benzyl)-1,3-dihydrospiro[indene-2,3′-pyrrolidine]-4-carboxamide]: the IC50 was in the range of 500 to 1000 nM. On to `O=C(NO)c1cccc2c1CC1(CCN(Cc3cccc(Br)c3)C1=O)C2` (stereo not drawn) [II-33, 1′-(3-bromobenzyl)-N-hydroxy-2′-oxo-1,3-dihydrospiro[indene-2,3′-pyrrolidine]-4-carboxamide], for which the IC50 is below 500 nM.
